According to US20230285397A1, “EGFR INHIBITOR” (TAIHO PHARMACEUTICAL CO., LTD., priority 2020, published 2023):

What was measured:
[1] = test system: H1975-EGFRinsSVD cell line; experiment: Antitumor effect confirmation test (in vivo) on subcutaneous transplantation models; design: species or system nude mouse (BALB/cAJcl-nu/nu); details: Examples 2, 11 and 12 orally at 25, 25 and 50 mg/kg/day, Days 1-14; Dunnett test P<0.001
Description: When the tumor volumes of nude mice having tumor engraftment became on the order of 100 to 200 mm^3, the mice were assigned to groups each involving 6 animals by random stratification such that the average tumor volume was equal among the groups.
The test compound used was the compounds of Examples 2, 11, and 12, and a 0.5% HPMC aqueous solution was used as a control. The compounds of Examples 2, 11 and 12 were orally administered at doses of 25 mg/kg/day, 25 mg/kg/day and 50 mg/kg/day, respectively.
Each test compound or the control was orally administered every day for 14 days (Days 1-14) from the day following the grouping.
To compare the transition of tumor growth over time by the administration of each test compound, a tumor volume (which is also referred to as “TV” below) was measured at a frequency of twice a week over time. […] A body weight change percentage is also referred to as “BWC” below.
BWCn(%)=((body weight on n^th day)−(body weight on grouping day)]/[(body weight on grouping day)×100

[2] = molecular target: T1, EGFR [D770_N771insNPG] (Homo sapiens, UniProt P00533, INS772GNP); experiment: Phosphorylation activity inhibitory effect (in vitro), kinase assay at Carna Biosciences; assay type: biochemical; details: ATP near Km
T1 construct: fused on or other part: Probably an N-terminal GST tag (Carna product)
T1 sequence (P00533 with tags, fused parts or gaps INS772GNP): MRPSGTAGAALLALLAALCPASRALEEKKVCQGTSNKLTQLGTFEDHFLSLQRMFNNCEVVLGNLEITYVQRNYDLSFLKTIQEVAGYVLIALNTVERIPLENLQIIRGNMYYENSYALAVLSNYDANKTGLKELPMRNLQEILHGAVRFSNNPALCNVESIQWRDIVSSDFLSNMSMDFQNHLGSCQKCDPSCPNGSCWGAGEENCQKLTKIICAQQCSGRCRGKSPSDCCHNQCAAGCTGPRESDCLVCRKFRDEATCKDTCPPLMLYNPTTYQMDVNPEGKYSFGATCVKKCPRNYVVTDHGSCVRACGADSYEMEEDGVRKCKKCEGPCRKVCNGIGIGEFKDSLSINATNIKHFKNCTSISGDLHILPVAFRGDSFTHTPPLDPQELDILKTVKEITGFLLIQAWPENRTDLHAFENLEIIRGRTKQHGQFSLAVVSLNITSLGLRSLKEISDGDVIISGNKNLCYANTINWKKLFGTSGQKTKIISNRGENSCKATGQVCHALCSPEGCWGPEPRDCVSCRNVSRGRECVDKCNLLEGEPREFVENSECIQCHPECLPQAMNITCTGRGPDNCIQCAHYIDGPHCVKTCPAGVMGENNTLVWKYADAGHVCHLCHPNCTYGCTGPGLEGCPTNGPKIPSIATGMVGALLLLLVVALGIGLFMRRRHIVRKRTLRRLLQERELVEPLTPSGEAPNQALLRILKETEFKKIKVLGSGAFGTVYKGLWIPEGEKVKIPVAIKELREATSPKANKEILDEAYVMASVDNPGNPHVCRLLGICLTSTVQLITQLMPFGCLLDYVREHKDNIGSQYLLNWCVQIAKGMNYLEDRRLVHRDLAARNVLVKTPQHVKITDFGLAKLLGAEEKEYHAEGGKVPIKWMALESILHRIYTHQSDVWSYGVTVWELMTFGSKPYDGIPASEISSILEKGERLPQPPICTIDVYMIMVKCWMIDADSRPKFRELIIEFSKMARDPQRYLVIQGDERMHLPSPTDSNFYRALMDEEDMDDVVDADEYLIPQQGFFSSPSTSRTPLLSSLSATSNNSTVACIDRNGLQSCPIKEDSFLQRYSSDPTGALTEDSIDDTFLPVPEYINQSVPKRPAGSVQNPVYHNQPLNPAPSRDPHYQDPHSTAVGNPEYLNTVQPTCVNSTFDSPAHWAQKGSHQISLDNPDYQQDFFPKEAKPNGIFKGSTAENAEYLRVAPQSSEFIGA
Description: The measurement of the in vitro inhibitory activity of a compound against wild-type and mutant EGFR was outsourced to Carna Biosciences, Inc. (Kinase Profiling Book, https://www.carnabio.com/japanese/product/search.cgi?mode=profiling).
Specifically, first, the compound of the present invention was diluted stepwise with dimethyl sulfoxide (DMSO). […] To the reaction solution, Termination Buffer was added, so as to terminate the kinase reaction. Finally, using LabChip™ EZ Reader II (PerkinElmer), an unphosphorylated substrate peptide (S) and a phosphorylated peptide (P) were separated and detected according to microchannel capillary electrophoresis.

[3] = Evaluation of oral absorbability; assay type: in vivo; details: BALB/cA mice, 50 mg/kg/day
Description: The compound of the present invention was suspended or dissolved in 0.5% HPMC aqueous solution and 0.1 N hydrochloric acid, and the obtained suspension or solution was orally administered to BALB/cA mice (CLEA Japan, Inc.) at a dose of 50 mg/kg/day. At 0.5, 1, 2, 4 and 6 hours after completion of the oral administration, blood was collected from the facial vein over time, so as to obtain plasma. The concentration of the compound in the obtained plasma was measured by LC-MS/MS, and the oral absorbability of the present compound was evaluated.

[4] = Evaluation of brain penetration properties; assay type: in vivo; details: BALB/cA mice, oral, 50 mg/kg/day, 0.5 hours
Description: The compound of the present invention was suspended or dissolved in 0.5% HPMC aqueous solution and 0.1 N hydrochloric acid, and the obtained suspension or solution was orally administered to BALB/cA mice (CLEA Japan, Inc.) at a dose of 50 mg/kg/day. At 0.5 hours after completion of the oral administration, blood was collected from the facial vein, and whole brain was then excised, so as to obtain plasma and brain samples. Water was added to the obtained brain sample in 3 times the volume of the brain sample, and the resultant was then homogenized using an ultrasonic homogenizer, so as to obtain a brain homogenate. The concentration of the compound in the obtained plasma and brain homogenate was measured by LC-MS/MS, and the brain penetration properties of the present compound were evaluated from the brain/plasma concentration of the compound.

Structure (SMILES) | Antitumor effect: tumor volume (TV) on Day 15 compared with the control group [1] | IC50 [2] [nM] | Attenuation of oral absorbability relative to the compound of the present invention [3] | Attenuation of brain concentration relative to the compound of the present invention [4]
C=CC(=O)N1C[C@H](n2c(C#CC3CC3)c(C(=O)N[C@H](C)c3ccccc3)c3c(N)ncnc32)C[C@@H]1C [Example 11, 7-((3R,5S)-1-acryloyl-5-methylpyrrolidin-3-yl)-4-amino-6-(cyclopropylethynyl)-N—((R)-1-phenylethyl)-7H-pyrrolo[2,3-d]pyrimidine-5-carboxamide] | excellent antitumor effects | 0.55 |  | 
C=CC(=O)N1C[C@H](n2nc(C(=O)Nc3ccc(CC(=O)N(C)C)c(C)c3C)c3c(N)ncnc32)C[C@@H]1C [Comparative Example 2, 1-((3R,5S)-1-acryloyl-5-methylpyrrolidin-3-yl)-4-amino-N-(4-(2-(dimethylamino)-2-oxoethyl)-2,3-dimethylphenyl)-1H-pyrazolo[3,4-d]pyrimidine-3-carboxamide] |  |  | more than 4 times | more than 80 times
C=CC(=O)N1C[C@H](n2c(C#CC)c(C(=O)N[C@H](C)c3ccccc3)c3c(N)ncnc32)C[C@@H]1C [Example 2, 7-((3R,5S)-1-acryloyl-5-methylpyrrolidin-3-yl)-4-amino-N—((R)-1-phenylethyl)-6-(prop-1-yn-1-yl)-7H-pyrrolo[2,3-d]pyrimidine-5-carboxamide] | excellent antitumor effects |  |  | 
C=CC(=O)N1C[C@H](n2c(C#CC(C)(C)C)c(C(=O)N[C@H](C)c3ccccc3)c3c(N)ncnc32)C[C@@H]1C [Example 12, 7-((3R,5S)-1-acryloyl-5-methylpyrrolidin-3-yl)-4-amino-6-(3,3-dimethylbut-1-yn-1-yl)-N—((R)-1-phenylethyl)-7H-pyrrolo[2,3-d]pyrimidine-5-carboxamide] | excellent antitumor effects |  |  | 
